Test results: US7592458B2, “Dermal anesthetic compounds and pharmaceutical compositions for inducing local anesthesia and mitigating neuropathic pain” (priority 2006, dated 2009)
Where a name gives a salt, the structure may show the parent alone. Marks after values point to notes of the source that are not given here.

Tested on: guinea pigs
Assay: Local anesthetic activity (infiltration anesthesia), pin-prick method after intradermal injection
Type: in vivo, guinea pig
Settings: 0.1 ml intradermal

SMILES | Dermal anesthesia after intradermal injection: non-responding pinpricks of 36 (0.05%, 15 min) | Dermal anesthesia after intradermal injection: non-responding pinpricks of 36 (0.05%, 30 min) | Dermal anesthesia after intradermal injection: non-responding pinpricks of 36 (0.05%, 60 min) | Dermal anesthesia after intradermal injection: non-responding pinpricks of 36 (0.05%, 90 min) | Dermal anesthesia after intradermal injection: non-responding pinpricks of 36 (0.05%, 120 min) | Dermal anesthesia after intradermal injection: non-responding pinpricks of 36 (0.10%, 15 min) | Dermal anesthesia after intradermal injection: non-responding pinpricks of 36 (0.10%, 30 min) | Dermal anesthesia after intradermal injection: non-responding pinpricks of 36 (0.10%, 60 min) | Dermal anesthesia after intradermal injection: non-responding pinpricks of 36 (0.10%, 90 min) | Dermal anesthesia after intradermal injection: non-responding pinpricks of 36 (0.10%, 120 min) | other results
CCN(CC)CC(=O)Nc1c(C)cccc1C [Lidocaine.HCl, lidocaine, reference compound] | – | – | – | – | – | – | – | – | – | – | Dermal anesthesia after intradermal injection: non-responding pinpricks of 36 (0.25%, 15 min): 31/36; Dermal anesthesia after intradermal injection: non-responding pinpricks of 36 (0.25%, 30 min): 21/36; Dermal anesthesia after intradermal injection: non-responding pinpricks of 36 (0.25%, 60 min): 6/36; Dermal anesthesia after intradermal injection: non-responding pinpricks of 36 (0.25%, 90 min): 4/36; Dermal anesthesia after intradermal injection: non-responding pinpricks of 36 (0.25%, 120 min): 1/36; Dermal anesthesia after intradermal injection: non-responding pinpricks of 36 (0.50%, 15 min): 24/36; Dermal anesthesia after intradermal injection: non-responding pinpricks of 36 (0.50%, 30 min): 18/36; Dermal anesthesia after intradermal injection: non-responding pinpricks of 36 (0.50%, 60 min): 11/36; Dermal anesthesia after intradermal injection: non-responding pinpricks of 36 (0.50%, 90 min): 10/36; Dermal anesthesia after intradermal injection: non-responding pinpricks of 36 (0.50%, 120 min): 9/36; Dermal anesthesia after intradermal injection: non-responding pinpricks of 36 (1.00%, 15 min): 32/36; Dermal anesthesia after intradermal injection: non-responding pinpricks of 36 (1.00%, 30 min): 28/36; Dermal anesthesia after intradermal injection: non-responding pinpricks of 36 (1.00%, 60 min): 9/36; Dermal anesthesia after intradermal injection: non-responding pinpricks of 36 (1.00%, 90 min): 8/36; Dermal anesthesia after intradermal injection: non-responding pinpricks of 36 (1.00%, 120 min): 6/36
CCCCN1CCCCC1CCN(c1ccccc1)C1CCc2ccccc2C1 (stereo not drawn) [Bu-CLAC-34•HCl] | 36/36 | 36/36 | 36/36 | 36/36 | 36/36 | 36/36 | 36/36 | 36/36 | 36/36 | 36/36 | –
CCCN(CCC)CCN(c1ccccc1)C1CCc2ccccc2C1 (stereo not drawn) [CLAC-PP•HCl] | 36/36 | 36/36 | 36/36 | 36/36 | 36/36 | 36/36 | 36/36 | 36/36 | 36/36 | 36/36 | –
c1ccc(N(CCC2CCCCN2)C2CCc3ccccc3C2)cc1 (stereo not drawn) [CLAC-34•HCl] | 35/36* | 36/36** | 6/36 | 36/36 | 36/36 | 36/36 | 36/36 | 36/36 | 36/36 | 36/36 | –
